Reference: ChEMBL document CHEMBL5344478, “Cytochrome bd oxidase: an emerging anti-tubercular drug target” (RSC Med Chem, 2024)

Tests used:
[1] = Inhibition of Mycobacterium bovis BCG cytochrome bd oxidase with ATP synthase overexpression inverted membrane vesicles; format: cell membranes, Mycobacterium tuberculosis variant bovis, Membrane vesicle
[2] = Inhibition of wild type Mycobacterium bovis BCG cytochrome bd oxidase assessed as inhibition of oxygen consumption rate measured after 5 days by Methylene blue dye based assay; set-up: species or system Mycobacterium tuberculosis variant bovis

| Compound | IC50 [1] | IC50 [2] |
| --- | --- | --- |
| c1ccc(CCNc2ncnc3ccccc23)cc1 | 11 µM |  |
| FC(F)(F)c1ccc(Oc2ccc(Nc3ncnc4ccccc34)cc2)cc1 | 0.5 µM | 0.8 µM |
| NC(=O)NC(=O)c1nc(-c2cc3ccccc3o2)c(N)nc1N | 21.2 µM |  |
| CCc1nc2ccc(Cl)cn2c1C(=O)NCc1ccc(N2CCC(c3ccc(OC(F)(F)F)cc3)CC2)cc1 [TELACEBEC] | 6.2 µM |  |
